Experimental data reported in patent publication US9096515B2, “Methods of using cycloalkylmethylamine derivatives” (Reviva Pharmaceuticals, Inc., priority 2010, dated 2015).
Read-outs that look alike come from different tables or passages of the source.

Experiments:
[1] = molecular target: human recombinant transporter protein serotonin (SERT) (Homo sapiens (Human), UniProt P31645); experiment: radioligand binding assay, serotonin transporter
Procedure: (§1) The monoamine transporters inhibitory activities of selected compounds cycloalkylmethylamine derivatives comprising Formula (I) are reported herein. The compounds were evaluated using well established radioligand binding assays protocols (Galli, A. et al., J. Exp. Biol. 1995, 198, 2197-2212; Giros, B. et al., Trends Pharmcol. Sci. 1993, 14, 43-49; Gu, H. et al., J. Biol. Chem. 1994, 269(10), 7124-7130; Shearman, L. P. et al, Am. J. Physiol., 1998, 275(6 Pt 1), C1621-1629; Wolf, W. A. et al., J. Biol. Chem. 1992, 267(29), 20820-20825). The human recombinant transporter proteins dopamine (DAT), norepinephrine (NET) and serotonin (SERT) were selected for the in vitro assays. The radioligand binding assays were carried out at 11 different test concentrations […] to 1 μM.
(§2) The assays were carried out in duplicates and the quantitative data are reported as Ki in the TABLE 1.

[2] = molecular target: human recombinant transporter protein norepinephrine (NET) (Homo sapiens (Human), UniProt P23975); experiment: radioligand binding assay, norepinephrine transporter
Chain of human recombinant transporter protein norepinephrine (NET) (P23975 whole entry): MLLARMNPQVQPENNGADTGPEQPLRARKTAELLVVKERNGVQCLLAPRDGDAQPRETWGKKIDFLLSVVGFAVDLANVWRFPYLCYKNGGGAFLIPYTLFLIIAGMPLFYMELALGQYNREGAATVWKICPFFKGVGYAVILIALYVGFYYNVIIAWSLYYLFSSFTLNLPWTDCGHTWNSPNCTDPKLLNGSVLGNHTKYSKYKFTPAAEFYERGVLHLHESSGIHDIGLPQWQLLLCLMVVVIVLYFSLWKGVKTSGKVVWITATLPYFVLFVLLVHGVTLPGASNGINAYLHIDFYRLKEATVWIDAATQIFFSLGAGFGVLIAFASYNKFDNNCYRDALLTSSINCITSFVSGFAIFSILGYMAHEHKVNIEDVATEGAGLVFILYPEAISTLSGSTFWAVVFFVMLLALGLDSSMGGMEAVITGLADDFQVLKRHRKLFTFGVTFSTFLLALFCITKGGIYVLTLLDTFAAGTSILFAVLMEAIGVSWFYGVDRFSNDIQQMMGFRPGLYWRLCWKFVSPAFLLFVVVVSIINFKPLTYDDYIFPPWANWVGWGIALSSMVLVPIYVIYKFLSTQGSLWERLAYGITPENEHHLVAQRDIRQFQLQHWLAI
Procedure: as §1, §2

[3] = molecular target: human recombinant transporter protein dopamine (DAT) (Homo sapiens (Human), UniProt Q01959); experiment: radioligand binding assay, dopamine transporter
Chain of human recombinant transporter protein dopamine (DAT) (Q01959 whole entry): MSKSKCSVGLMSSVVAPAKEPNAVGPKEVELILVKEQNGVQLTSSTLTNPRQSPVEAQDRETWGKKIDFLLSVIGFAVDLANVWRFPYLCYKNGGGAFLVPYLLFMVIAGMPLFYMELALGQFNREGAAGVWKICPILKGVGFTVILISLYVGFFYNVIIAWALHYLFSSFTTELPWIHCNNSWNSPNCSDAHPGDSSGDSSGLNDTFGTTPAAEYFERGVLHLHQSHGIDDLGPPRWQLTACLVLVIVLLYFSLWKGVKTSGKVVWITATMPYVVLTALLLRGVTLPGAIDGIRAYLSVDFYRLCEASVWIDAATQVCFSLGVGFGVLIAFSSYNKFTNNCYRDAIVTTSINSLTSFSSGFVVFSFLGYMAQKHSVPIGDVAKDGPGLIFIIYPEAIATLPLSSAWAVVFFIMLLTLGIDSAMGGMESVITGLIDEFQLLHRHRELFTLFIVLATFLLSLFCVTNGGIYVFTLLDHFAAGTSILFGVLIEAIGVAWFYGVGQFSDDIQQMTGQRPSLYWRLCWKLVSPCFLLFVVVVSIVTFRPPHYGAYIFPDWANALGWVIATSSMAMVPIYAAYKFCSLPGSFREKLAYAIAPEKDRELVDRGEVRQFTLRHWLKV
Procedure: as §1, §2

[4] = active metabolites of sibutramine; background statement; cited from earlier work
[5] = human recombinant SERT, 11 test concentrations 0.1 nm to 1 μM, duplicates, read-out: SERT Ki
[6] = human recombinant NET, 11 test concentrations 0.1 nm to 1 μM, duplicates, read-out: NET Ki
[7] = human recombinant DAT, 11 test concentrations 0.1 nm to 1 μM, duplicates, read-out: DAT Ki

Compound | Ki [1, 5] [nM] | Ki [2, 6] [nM] | Ki [3, 7] [nM] | Ki [2] [nM] | Ki [3] [nM] | Ki [1] [nM] | elimination half-life [4] [h]
2-((1-(1-(3,4-Dichlorophenyl)cyclobutyl)-3-methylbutyl)amino)ethyl propionate [Compound 12q] | 10.6 | 38.2 | 7.2 |  |  |  | 
CC(CCNCCCC(N)=O)CC1(c2ccc(Cl)c(Cl)c2)CCC1 (racemic) [33a -Racemic] | 8.1 | 50.1 | 1.5 |  |  |  | 
CCOc1ccc(C2(CC(C)CCNCCCC(N)=O)CCC2)cc1 (racemic) [33b -Racemic] | 5.49 | > 10000 | 472 |  |  |  | 
C[C@@H](CCNCCCC(N)=O)CC1(c2ccc(Cl)c(Cl)c2)CCC1 (single isomer, unassigned) [33a -(R)-Isomer] | 2.3 | 30.3 | 0.91 |  |  |  | 
CCOc1ccc(C2(C[C@@H](C)CCNCCCC(N)=O)CCC2)cc1 (single isomer, unassigned) [33b -(R)-Isomer] | 2.79 | 6520 | 130 |  |  |  | 
CCOc1ccc(C2(C[C@H](C)CCNCCCC(N)=O)CCC2)cc1 (single isomer, unassigned) [33b -(S)-Isomer] | 329 | 1090 | 4030 |  |  |  | 
CCOc1ccc(C2(C(CC(C)C)NCCOC(=O)CC)CCC2)cc1 (centres unmarked) [Compound 12u, 2-((1-(1-(4-Ethoxyphenyl)cyclobutyl)-3-methylbutyl)amino)ethyl propionate] | 5.7 | 2340 | 80.4 |  |  |  | 
CCOC(=O)NCCNC(CC(C)C)C1(c2ccc(Cl)c(Cl)c2)CCC1 (centres unmarked) [Compound 21a, Ethyl (2-((1-(1-(3,4-dichlorophenyl)cyclobutyl)-3-methylbutyl)amino)ethyl)carbamate] | 1 |  |  | 13.4 | 38.4 |  | 
CCOC(=O)NCCNC(CC(C)C)C1(c2ccc(OCC)cc2)CCC1 (centres unmarked) [Compound 21b, Ethyl (2-((1-(1-(4-ethoxyphenyl)cyclobutyl)-3-methylbutyl)amino)ethyl)carbamate] |  |  |  | 1920 | 159 | 2 | 
CCCC(=O)NCCNC(CC(C)C)C1(c2ccc(Cl)c(Cl)c2)CCC1 (centres unmarked) [Compound 31a, N-(2-((1-(1-(3,4-Dichlorophenyl)cyclobutyl)-3-methylbutyl)amino)ethyl)butyramide] | 27.8 |  |  | 77.7 | 52.7 |  | 
CCCC(=O)NCCNC(CC(C)C)C1(c2ccc(OCC)cc2)CCC1 (centres unmarked) [Compound 31b, N-(2-((1-(1-(4-Ethoxyphenyl)cyclobutyl)-3-methylbutyl)amino)ethyl)butyramide] |  |  | 251 | 4730 |  | 25 | 
CNC(CC(C)C)C1(c2ccc(Cl)cc2)CCC1 (centres unmarked) [Compound M1] |  |  |  |  |  |  | 14
CC(C)CC(N)C1(c2ccc(Cl)cc2)CCC1 (centres unmarked) [Compound M2] |  |  |  |  |  |  | 16
